These results are taken from ChEMBL document CHEMBL1821699, “1,5-Disubstituted indole derivatives as selective human neuronal nitric oxide synthase inhibitors” (Bioorg Med Chem Lett, 2011).

The target in the first test is T1, Nitric oxide synthase 3 (Homo sapiens, UniProt P29474).
T1 sequence (P29474 whole entry): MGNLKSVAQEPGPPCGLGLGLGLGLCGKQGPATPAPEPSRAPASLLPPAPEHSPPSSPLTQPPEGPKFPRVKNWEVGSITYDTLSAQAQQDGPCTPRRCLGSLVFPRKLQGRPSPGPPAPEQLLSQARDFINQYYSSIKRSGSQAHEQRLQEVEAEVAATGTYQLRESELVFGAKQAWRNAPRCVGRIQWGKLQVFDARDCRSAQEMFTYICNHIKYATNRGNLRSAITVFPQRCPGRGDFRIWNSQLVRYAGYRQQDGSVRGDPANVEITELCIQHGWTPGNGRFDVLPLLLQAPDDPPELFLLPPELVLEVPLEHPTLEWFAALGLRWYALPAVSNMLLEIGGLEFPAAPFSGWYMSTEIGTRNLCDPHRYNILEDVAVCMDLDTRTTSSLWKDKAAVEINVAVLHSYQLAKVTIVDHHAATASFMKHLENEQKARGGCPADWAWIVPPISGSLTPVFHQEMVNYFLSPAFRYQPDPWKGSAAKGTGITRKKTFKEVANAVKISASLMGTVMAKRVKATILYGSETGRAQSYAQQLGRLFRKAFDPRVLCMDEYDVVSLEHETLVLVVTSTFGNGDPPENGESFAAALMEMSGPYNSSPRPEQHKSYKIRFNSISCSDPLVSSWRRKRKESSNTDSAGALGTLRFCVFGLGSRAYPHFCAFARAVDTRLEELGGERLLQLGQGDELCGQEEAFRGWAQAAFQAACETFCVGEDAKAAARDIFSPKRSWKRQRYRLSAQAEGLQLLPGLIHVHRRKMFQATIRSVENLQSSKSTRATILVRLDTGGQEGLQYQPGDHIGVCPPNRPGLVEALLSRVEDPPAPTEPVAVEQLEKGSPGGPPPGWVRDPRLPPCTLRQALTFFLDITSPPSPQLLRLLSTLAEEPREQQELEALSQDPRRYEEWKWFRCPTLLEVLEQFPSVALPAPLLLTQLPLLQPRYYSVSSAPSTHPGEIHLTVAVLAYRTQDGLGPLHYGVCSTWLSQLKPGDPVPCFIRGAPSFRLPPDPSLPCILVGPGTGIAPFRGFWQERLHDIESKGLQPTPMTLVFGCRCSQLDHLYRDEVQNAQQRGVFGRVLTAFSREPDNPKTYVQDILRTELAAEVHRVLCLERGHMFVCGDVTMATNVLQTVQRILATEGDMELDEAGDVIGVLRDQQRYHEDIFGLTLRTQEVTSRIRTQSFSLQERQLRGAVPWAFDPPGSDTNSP
Briefly: Inhibition of human recombinant eNOS expressed in Sf9 cells assessed as conversion of [3H]-L-arginine to [3H]-L-citrulline by radiometric method.
Turning to `CN1CCC[C@H]1CCn1ccc2cc(NC(=N)c3cccs3)ccc21`, the IC50 (commonly the concentration that gives 50% inhibition) stood at 1.92 µM.

Take `CN1CCC[C@@H]1CCn1ccc2cc(NC(=N)c3cccs3)ccc21`: the IC50 stood at 3.37 µM.

In a further test the target is Nitric oxide synthase, inducible (Homo sapiens, UniProt P35228). The test is described as follows: Inhibition of human recombinant iNOS expressed in Sf9 cells assessed as conversion of [3H]-L-arginine to [3H]-L-citrulline by radiometric method.
Nitric oxide synthase, inducible, sequence (P35228 whole entry): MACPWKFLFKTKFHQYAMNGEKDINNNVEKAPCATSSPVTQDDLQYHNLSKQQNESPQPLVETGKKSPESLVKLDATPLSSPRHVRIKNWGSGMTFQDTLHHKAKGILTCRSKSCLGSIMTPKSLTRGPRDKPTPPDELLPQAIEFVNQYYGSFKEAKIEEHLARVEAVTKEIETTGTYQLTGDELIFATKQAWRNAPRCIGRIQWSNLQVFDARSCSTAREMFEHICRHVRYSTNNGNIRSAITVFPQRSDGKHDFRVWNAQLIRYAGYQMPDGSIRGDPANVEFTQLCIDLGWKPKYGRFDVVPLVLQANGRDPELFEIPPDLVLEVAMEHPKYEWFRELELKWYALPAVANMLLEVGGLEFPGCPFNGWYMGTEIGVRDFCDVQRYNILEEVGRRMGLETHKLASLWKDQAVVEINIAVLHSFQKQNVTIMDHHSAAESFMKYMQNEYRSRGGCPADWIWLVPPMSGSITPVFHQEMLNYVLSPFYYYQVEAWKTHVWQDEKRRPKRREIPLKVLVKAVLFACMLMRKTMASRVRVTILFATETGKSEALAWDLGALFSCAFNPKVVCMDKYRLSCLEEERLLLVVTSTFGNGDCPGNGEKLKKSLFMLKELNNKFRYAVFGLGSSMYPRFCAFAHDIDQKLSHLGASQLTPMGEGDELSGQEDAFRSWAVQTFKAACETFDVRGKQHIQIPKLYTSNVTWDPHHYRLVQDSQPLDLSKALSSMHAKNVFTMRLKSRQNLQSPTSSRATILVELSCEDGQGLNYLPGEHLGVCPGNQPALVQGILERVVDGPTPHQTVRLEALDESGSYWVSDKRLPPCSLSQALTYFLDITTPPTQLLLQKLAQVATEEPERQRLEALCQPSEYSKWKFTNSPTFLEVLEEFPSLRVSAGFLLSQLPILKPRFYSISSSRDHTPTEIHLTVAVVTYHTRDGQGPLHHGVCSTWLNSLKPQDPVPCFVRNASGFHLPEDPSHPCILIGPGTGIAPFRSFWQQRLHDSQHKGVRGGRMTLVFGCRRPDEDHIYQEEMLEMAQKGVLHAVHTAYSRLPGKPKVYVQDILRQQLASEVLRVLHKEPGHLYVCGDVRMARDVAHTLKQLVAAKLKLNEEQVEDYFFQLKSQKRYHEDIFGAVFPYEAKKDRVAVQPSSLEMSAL
`N=C(Nc1ccc2c(ccn2CCCNC23CC4CC(CC(C4)C2)C3)c1)c1cccs1`: the half-maximal inhibitory concentration (IC50) came out at 18 µM. Consider `N=C(Nc1ccc2c(ccn2CCN2CCCCC2)c1)c1cccs1`, for which the IC50 was found to be 4.61 µM. Still for that read-out and setting: the value for `N=C(Nc1ccc2c(ccn2CCCNC2CC2)c1)c1cccs1` was 34 µM; that for `CN(C)CCn1ccc2cc(NC(=N)c3cccs3)ccc21` was 15.7 µM. As for `CN1CCC[C@H]1CCn1ccc2cc(NC(=N)c3cccs3)ccc21`, the IC50 came out at 17 µM. In the case of `N=C(Nc1ccc2c(ccn2CCCN2CCOCC2)c1)c1cccs1`, the IC50 came to 41.6 µM. As to `CN1CCCCC1CCn1ccc2cc(NC(=N)c3cccs3)ccc21` (stereo not drawn), the IC50 is 9.8 µM.

In the case of `CN1CCC[C@@H]1CCn1ccc2cc(NC(=N)c3cccs3)ccc21`, the IC50 was determined as 22 µM. Consider `CN1CCCC1CCn1ccc2cc(NC(=N)c3cccs3)ccc21` (racemic), for which the IC50 was 14 µM.

Regarding `CN1CCCC(n2ccc3cc(NC(=N)c4ccco4)ccc32)CC1` (single isomer, unassigned; (-)), the 50% inhibitory concentration (IC50) amounted to 20 µM.

As to `CN1CCCC(n2ccc3cc(NC(=N)c4ccco4)ccc32)CC1` (stereo in doubt; (+)-15), the concentration for half-maximal inhibition (IC50) was 73 µM.
